# Experimental data reported in ChEMBL document CHEMBL1147250, “Enhancement of the antiplasmodial activity of quassin by transformation into a gamma-lactone” (J Nat Prod, 2003).
# Key:
# Plasmodium falciparum [1] = assay: Antiplasmodial activity against chloroquine-resistant Plasmodium falciparum K1 infected erythrocytes by [3H]hypoxanthine uptake; assay type: functional, organism-based
# [2] = Selectivity index, ratio of IC50 for human KB cells to IC50 for Plasmodium falciparum K1; assay type: toxicity, cell-based; conditions: KB cells (cytotoxicity) versus Plasmodium falciparum K1, read-out: Selectivity Index
# Plasmodium falciparum [3] = assay: Antiplasmodial activity against Plasmodium falciparum K1
SMILES,IC50 (Plasmodium falciparum [1]),selectivity ratio [2],IC50 (Plasmodium falciparum [3])
COC1=C[C@@H](C)[C@@H]2C[C@H]3OC(=O)[C@H]4C(C)=C(OC)C(=O)[C@H]([C@@]2(C)C1=O)[C@]43C [QUASSILACTONE],406 µM,17.7,23 µM
COC1=C[C@@H](C)[C@@H]2C[C@H]3OC(=O)[C@H](O)[C@H]4C(C)=C(OC)C(=O)[C@H]([C@@]2(C)C1=O)[C@]43C,> 1000 µM,> 1.1,930 µM
COC1=C[C@@H](C)[C@@H]2C[C@H]3O[C@@H](O)[C@H]4C(C)=C(OC)C(=O)[C@H]([C@@]2(C)C1=O)[C@]43C [QUASSILACTOL],576 µM,8.9,65 µM
CC[C@H]1CN2CCc3cc(OC)c(OC)cc3[C@@H]2C[C@@H]1C[C@H]1NCCc2cc(OC)c(OC)cc21,0.96 µM,–,–
COC1=C[C@@H](C)[C@@H]2C[C@H]3OC(O)C[C@H]4C(C)=C(OC)C(=O)[C@H]([C@@]2(C)C1=O)[C@@]34C (some centres not stated) [NEOQUASSIN],615 µM,1.3,473 µM
COC1=C[C@@H](C)[C@@H]2C[C@H]3OC(OC(=O)c4cccc(Cl)c4)[C@H](O)[C@H]4C(C)=C(OC)C(=O)[C@H]([C@@]2(C)C1=O)[C@]43C (some centres not stated),232 µM,112,1.8 µM
COC1=C[C@@H](C)[C@@H]2C[C@H]3OC(=O)C[C@H]4C(C)=C(OC)C(=O)[C@H]([C@@]2(C)C1=O)[C@@]34C [QUASSIN],> 1000 µM,> 1,911 µM
COC1=C[C@@H](C)[C@@H]2C[C@H]3OC(O)[C@H](O)[C@H]4C(C)=C(OC)C(=O)[C@H]([C@@]2(C)C1=O)[C@]43C (some centres not stated) [HYDROXYNEOQUASSINS],–,–,68 µM
COC1=C[C@@H](C)[C@@H]2C[C@H]3OC=C[C@H]4C(C)=C(OC)C(=O)[C@H]([C@@]2(C)C1=O)[C@@]34C [ANHYDROQUASSIN],> 1000 µM,> 1,809 µM
COC1=C[C@@H](C)[C@@H]2C[C@H]3OC(OC4C[C@H]5C(C)=C(OC)C(=O)[C@@H]6[C@@]7(C)C(=O)C(OC)=C[C@@H](C)[C@@H]7C[C@@H](O4)[C@]65C)C[C@H]4C(C)=C(OC)C(=O)[C@H]([C@@]2(C)C1=O)[C@@]34C (some centres not stated) [NEOQUASSIN ETHER],149 µM,15.3,9.7 µM
CCN(CC)CCCC(C)Nc1ccnc2cc(Cl)ccc12 (configuration not stated) [CHLOROQUINE PHOSPHATE],–,–,0.6 µM
